Converted amounts (≈) assume the structure as drawn. The source made the active and inactive calls. The calls are words filed in the database; no cut-off is given here.
Key:
[1] = system: Streptococcus pyogenes; assay: Antibacterial activity against Streptococcus pyogenes ATCC 12344 assessed as bacterial growth inhibition incubated for 24 hrs by microdilution assay; format: functional
[2] = system: Staphylococcus aureus; assay: Antibacterial activity against Staphylococcus aureus USA300 LAC assessed as bacterial growth inhibition incubated for 24 hrs by microdilution assay; format: functional, organism-based
[3] = system: HL-60; assay: Cytotoxicity against human HL-60 cells harboring wild type FLT3 assessed as inhibition of cell proliferation incubated for 72 hrs by MTT assay; format: functional, cell-based; conditions: for IC50: HL-60, 72 h
[4] = system: MV4-11; assay: Cytotoxicity against human MV4-11 cells harboring FLT3-ITD mutant assessed as inhibition of cell proliferation incubated for 72 hrs by MTT assay; format: functional, cell-based; conditions: for IC50: MV4-11, 72 h
[5] = system: U-87 MG; assay: Cytotoxicity against human U87 cells harboring wild type IDH1 assessed as inhibition of cell proliferation incubated for 72 hrs by MTT assay; format: functional, cell-based; conditions: U-87MG ATCC
[6] = system: U-87 MG; assay: Cytotoxicity against human U87 cells harboring IDH1-R132H mutant assessed as inhibition of cell proliferation incubated for 72 hrs by MTT assay; format: functional, cell-based; conditions: U-87MG ATCC
[7] = system: HCT-116; assay: Cytotoxicity against human HCT-116 cells harboring wild type p53 assessed as inhibition of cell proliferation incubated for 72 hrs by MTT assay; format: functional, cell-based; conditions: for IC50: HCT-116, 72 h
[8] = system: HCT-116; assay: Cytotoxicity against human HCT-116 cells harboring p53-/- assessed as inhibition of cell proliferation incubated for 72 hrs by MTT assay; format: functional, cell-based

Row | MIC [1] [µg/mL] | Structure (SMILES) | Activity [2] | Activity [5] | Activity [6] | Activity [8] | other results
1 | 0.1 (≈ 0.222 µM) | CC(=O)/C=C\C(=O)/C(C)=C/C=C/C(C)=C1/C(=O)C[C@H]2[C@@]3(C)CCC(=O)C(C)(C)[C@@H]3CC[C@]12C | Active | – | – | – | –
2 | 1.8 (≈ 3.89 µM) | C\C(=C/C=C/C(C)=C1/C(=O)C[C@H]2[C@@]3(C)CCC(=O)C(C)(C)[C@@H]3CC[C@]12C)c1ccc(C)c(=O)o1 [STELLETIN A] | – | Active | Active | Active | Activity [3]: Active; Activity [4]: Active; Activity [7]: Active
3 | – | CC(=O)O[C@H]1CC[C@@]2(C)[C@@H](CC[C@]3(C)/C(=C(C)/C=C/C=C(\C)[C@H]4CC=C(C)C(=O)O4)C(=O)C[C@@H]23)C1(C)C | – | – | – | Active | IC50 [3]: 42 nM; IC50 [4]: 280 nM; IC50 [7]: 2490 nM
4 | 1 (≈ 2.02 µM) | CC(=O)/C=C\C(=O)/C(C)=C/C=C/C(C)=C1/C(=O)C[C@H]2[C@@]3(C)CC[C@H](OC(C)=O)C(C)(C)[C@@H]3CC[C@]12C | Active | – | – | – | –
5 | 1.8 (≈ 3.99 µM) | CC(=O)/C=C/C(=O)/C(C)=C/C=C/C(C)=C1/C(=O)C[C@H]2[C@@]3(C)CCC(=O)C(C)(C)[C@@H]3CC[C@]12C | Active | – | – | – | –
6 | 1.9 (≈ 3.84 µM) | CC(=O)/C=C\C(=O)/C(C)=C/C=C/C(C)=C1\C(=O)C[C@H]2[C@@]3(C)CC[C@H](OC(C)=O)C(C)(C)[C@@H]3CC[C@]12C [ISOGEODITIN B] | – | – | – | – | –
7 | 2 (≈ 3.95 µM) | CC(=O)O[C@H]1CC[C@@]2(C)[C@@H](CC[C@]3(C)\C(=C(C)/C=C/C=C(\C)c4ccc(C)c(=O)o4)C(=O)C[C@@H]23)C1(C)C [STELLETTIN C] | – | Active | Active | Active | Activity [3]: Active; Activity [4]: Active; Activity [7]: Active
8 | – | CC1=CC[C@@H](/C(C)=C/C=C/C(C)=C2\C(=O)C[C@H]3[C@@]4(C)CCC(=O)C(C)(C)[C@@H]4CC[C@]23C)OC1=O | – | Active | Active | Active | Activity [3]: Active; Activity [4]: Active; Activity [7]: Active
9 | 0.9 (≈ 2 µM) | CC(=O)/C=C/C(=O)/C(C)=C/C=C/C(C)=C1\C(=O)C[C@H]2[C@@]3(C)CCC(=O)C(C)(C)[C@@H]3CC[C@]12C [GEODITIN A] | Active | – | – | – | –
10 | 0.4 (≈ 0.888 µM) | CC(=O)/C=C\C(=O)/C(C)=C/C=C/C(C)=C1\C(=O)C[C@H]2[C@@]3(C)CCC(=O)C(C)(C)[C@@H]3CC[C@]12C [ISOGEODITIN A] | Active | – | – | – | –
11 | 2 (≈ 3.95 µM) | CC(=O)O[C@H]1CC[C@@]2(C)[C@@H](CC[C@]3(C)/C(=C(C)/C=C/C=C(\C)c4ccc(C)c(=O)o4)C(=O)C[C@@H]23)C1(C)C [STELLETTIN D] | – | Active | Active | Active | IC50 [3]: 15 nM; IC50 [4]: 390 nM; IC50 [7]: 2350 nM
